Patent US8124581B2, “Methods for treating breast cancer using NRIF3 related molecules” (New York University, priority 2004, dated 2012)
Entries after “also recorded” stand apart in the source; their conditions may differ. Where a SMILES comes first, the peptide text is derived from it. The star is where a group is joined. Cbz = O=C(OCc1ccccc1)*; CH2F = FC*

Key:
T-47D cells [1] = assay: Modulation of NRIF3- or DD1-mediated apoptosis in T-47D cells (TUNEL); format: cell-based, human
Method: (§1) Cell culture and transfection conditions. All breast cancer cell lines were maintained in DMEM (GIBCO-BRL, Life Technologies) supplemented with 10% fetal bovine serum (FBS). Other cells were cultured in DMEM supplemented with either 10% FBS or 10% Hyclone defined/supplemented bovine calf serum. For most of the transient transfections, T-47D cells were plated at a density of 3×10^4 cells/well on coverslips in 24-well tissue culture plates. About 20 h later, the cells were transfected with indicated plasmid(s) by Genefect transfection reagent (Molecula, USA) according to manufacturer's protocol. Generally, the amount of plasmids used in transfections was the following: GFP or GFP-fusion 300-500 ng, Bcl-2 or Bcl-xL 1-1.5 μg, AIF-GFP 500 ng, Gal4-DD1, GAl4-DD3 or Gal4 control 0.5-1 μg. After transfection, cells were incubated in DMEM/10% FBS medium for 5 h to 24 h before being harvested and processed for appropriate analyses. Transient transfection of other breast cancer cell lines were carried out similarly, except that the transfection reagent used was Lipofectamine 2000 (Life technologies). All other cells were transfected using Geneporter 2 (Gene Therapy Systems). When indicated, the following compounds were included in the medium: all-trans retinoic acid (100 nM), etopside (100 μM), zVAD-fmk (100 μM), zVDVAD-fmk (20 μM), TNFα (10 ng/ml) and cycloheximide (10 μg/ml).
siRNA studies. A small interference RNA (siRNA) duplex that efficiently silences human caspase-2 expression has been previously described (27), and was purchased from Dharmacon. The siRNA was dissolved at 20 pmol/μl in H2O. T-47D cells were plated at the density of 1.5×10^5 cells/well in 6-well plates the day before being transfected with siRNA. Transfection was carried out using Oligofectamine (Invitrogen), with 12 μl of dissolved siRNA and 12 μl of Oligofectamine reagent. Cells were fed with additional DMEM/10% FBS the second day, and harvested about 42 h after siRNA transfection. […] The harvested cells were then re-plated on cover-slips in 24-well plates as described earlier, and incubated for a few hours to let attachment occur. Cells were then transfected with the indicated GFP or GFP-fusion vectors as described earlier or treated with etoposide (100 μM). Cells were harvested about 20-24 h later and processed for appropriate assays. To document caspase-2 knock down, total lysates from siRNA transfected or control cells were quantified for protein concentrations. Equal amount of proteins were then subjected to SDS-PAGE, followed by Western analysis using a monoclonal antibody against caspase-2 (11B4, from Alexis).
Apoptosis assays. Cells plated on cover-slips in 24-well tissue culture plates were transfected and/or treated with appropriate compounds as indicated. Generally, cells were harvested within 20-24 h and processed for TUNEL and/or Annexin V assays. For Annexin V assay, cells were washed 3× with PBS and assayed using ApoAlert Nitric Oxide/Annexin V Dual Sensor Kit (BD Biosciences, USA) according to manufacturer's protocol. […] For quantitative analysis, fields consisting of at least several hundred cells were scanned, and a number of representative fields were photographed using GFP and rhodamine filters. Green and red cells from the same field were then counted. Generally, about one hundred of total green cells were counted for each data point. The percent of green cells counted that are also red were then calculated.

293 = assay: TUNEL apoptosis assay of transfected 293 cells; format: cell-based
Method: as §1, with “Transient transfection of other breast cancer cell lines were carried out similarly, except that the transfection reagent used was Lipofectamine 2000 (Life technologies). All other cells were transfected using Geneporter 2 (Gene Therapy Systems). When indicated, the following compounds were included in the medium: all-trans retinoic acid (100 nM), etopside (100 μM), zVAD-fmk (100 μM), zVDVAD-fmk (20 μM), TNFα (10 ng/ml) and cycloheximide (10 μg/ml).” left out
(§2) Apoptosis assays. […] For quantitative analysis, fields consisting of at least several hundred cells were scanned, and a number of representative fields were photographed using GFP and rhodamine filters. Green and red cells from the same field were then counted. Generally, about one hundred of total green cells were counted for each data point. The percent of green cells counted that are also red were then calculated.

MB-MDA-435 cells = assay: TUNEL apoptosis assay of transfected MB-MDA-435 cells; format: cell-based, human; conditions: MB-MDA-435 (ER−)
Method: as §1, with “Transient transfection of other breast cancer cell lines were carried out similarly, except that the transfection reagent used was Lipofectamine 2000 (Life technologies). All other cells were transfected using Geneporter 2 (Gene Therapy Systems). When indicated, the following compounds were included in the medium: all-trans retinoic acid (100 nM), etopside (100 μM), zVAD-fmk (100 μM), zVDVAD-fmk (20 μM), TNFα (10 ng/ml) and cycloheximide (10 μg/ml).” left out
as §2

MCF-7 cells = assay: TUNEL apoptosis assay of transfected MCF-7 cells; format: cell-based, human; conditions: MCF-7 (ER+)
Method: as §1, with “Transient transfection of other breast cancer cell lines were carried out similarly, except that the transfection reagent used was Lipofectamine 2000 (Life technologies). All other cells were transfected using Geneporter 2 (Gene Therapy Systems). When indicated, the following compounds were included in the medium: all-trans retinoic acid (100 nM), etopside (100 μM), zVAD-fmk (100 μM), zVDVAD-fmk (20 μM), TNFα (10 ng/ml) and cycloheximide (10 μg/ml).” left out
as §2

[2] = system: ER+ derivative of MB-MDA-231; assay: TUNEL apoptosis assay of transfected ER+ derivative of MB-MDA-231; format: cell-based, human
Method: as §1, with “Transient transfection of other breast cancer cell lines were carried out similarly, except that the transfection reagent used was Lipofectamine 2000 (Life technologies). All other cells were transfected using Geneporter 2 (Gene Therapy Systems). When indicated, the following compounds were included in the medium: all-trans retinoic acid (100 nM), etopside (100 μM), zVAD-fmk (100 μM), zVDVAD-fmk (20 μM), TNFα (10 ng/ml) and cycloheximide (10 μg/ml).” left out
as §2

GH4C1 = assay: TUNEL apoptosis assay of transfected GH4C1 cells; format: cell-based
Method: as §1, with “Transient transfection of other breast cancer cell lines were carried out similarly, except that the transfection reagent used was Lipofectamine 2000 (Life technologies). All other cells were transfected using Geneporter 2 (Gene Therapy Systems). When indicated, the following compounds were included in the medium: all-trans retinoic acid (100 nM), etopside (100 μM), zVAD-fmk (100 μM), zVDVAD-fmk (20 μM), TNFα (10 ng/ml) and cycloheximide (10 μg/ml).” left out
as §2

HBL100 cells = assay: TUNEL apoptosis assay of transfected HBL100 cells; format: cell-based; conditions: HBL100, non-malignant immortalized breast epithelial cell line
Method: as §1, with “Transient transfection of other breast cancer cell lines were carried out similarly, except that the transfection reagent used was Lipofectamine 2000 (Life technologies). All other cells were transfected using Geneporter 2 (Gene Therapy Systems). When indicated, the following compounds were included in the medium: all-trans retinoic acid (100 nM), etopside (100 μM), zVAD-fmk (100 μM), zVDVAD-fmk (20 μM), TNFα (10 ng/ml) and cycloheximide (10 μg/ml).” left out
as §2

COS-1 = assay: TUNEL apoptosis assay of transfected COS-1 cells; format: cell-based
Method: as §1, with “Transient transfection of other breast cancer cell lines were carried out similarly, except that the transfection reagent used was Lipofectamine 2000 (Life technologies). All other cells were transfected using Geneporter 2 (Gene Therapy Systems). When indicated, the following compounds were included in the medium: all-trans retinoic acid (100 nM), etopside (100 μM), zVAD-fmk (100 μM), zVDVAD-fmk (20 μM), TNFα (10 ng/ml) and cycloheximide (10 μg/ml).” left out
as §2

UOK-145 = assay: TUNEL apoptosis assay of transfected UOK-145 cells; format: cell-based
Method: as §1, with “Transient transfection of other breast cancer cell lines were carried out similarly, except that the transfection reagent used was Lipofectamine 2000 (Life technologies). All other cells were transfected using Geneporter 2 (Gene Therapy Systems). When indicated, the following compounds were included in the medium: all-trans retinoic acid (100 nM), etopside (100 μM), zVAD-fmk (100 μM), zVDVAD-fmk (20 μM), TNFα (10 ng/ml) and cycloheximide (10 μg/ml).” left out
as §2

T-47D cells [3] = assay: TUNEL apoptosis assay of transfected T-47D cells; format: cell-based, human; conditions: T-47D cells transfected with expression vector
Method: as §1, with “Transient transfection of other breast cancer cell lines were carried out similarly, except that the transfection reagent used was Lipofectamine 2000 (Life technologies). All other cells were transfected using Geneporter 2 (Gene Therapy Systems). When indicated, the following compounds were included in the medium: all-trans retinoic acid (100 nM), etopside (100 μM), zVAD-fmk (100 μM), zVDVAD-fmk (20 μM), TNFα (10 ng/ml) and cycloheximide (10 μg/ml).” left out
as §2

HeLa cells [4] = assay: TUNEL apoptosis assay of transfected HeLa cells; format: cell-based
Method: as §1, with “Transient transfection of other breast cancer cell lines were carried out similarly, except that the transfection reagent used was Lipofectamine 2000 (Life technologies). All other cells were transfected using Geneporter 2 (Gene Therapy Systems). When indicated, the following compounds were included in the medium: all-trans retinoic acid (100 nM), etopside (100 μM), zVAD-fmk (100 μM), zVDVAD-fmk (20 μM), TNFα (10 ng/ml) and cycloheximide (10 μg/ml).” left out
as §2

AIF-GFP = AIF-GFP translocation from mitochondria to nucleus in T-47D cells; format: cell-based, human; conditions: as early as 5 h after transfection
Method: as §1, with “Transient transfection of other breast cancer cell lines were carried out similarly, except that the transfection reagent used was Lipofectamine 2000 (Life technologies). All other cells were transfected using Geneporter 2 (Gene Therapy Systems). When indicated, the following compounds were included in the medium: all-trans retinoic acid (100 nM), etopside (100 μM), zVAD-fmk (100 μM), zVDVAD-fmk (20 μM), TNFα (10 ng/ml) and cycloheximide (10 μg/ml).” left out
as §2

MB-MDA-231 cells = assay: TUNEL apoptosis assay of transfected MB-MDA-231 cells; format: cell-based, human; conditions: MB-MDA-231 (ER−)
Method: as §1, with “Transient transfection of other breast cancer cell lines were carried out similarly, except that the transfection reagent used was Lipofectamine 2000 (Life technologies). All other cells were transfected using Geneporter 2 (Gene Therapy Systems). When indicated, the following compounds were included in the medium: all-trans retinoic acid (100 nM), etopside (100 μM), zVAD-fmk (100 μM), zVDVAD-fmk (20 μM), TNFα (10 ng/ml) and cycloheximide (10 μg/ml).” left out
as §2

HeLa cells [5] = assay: Apoptosis of HeLa cells treated with TNFα and cycloheximide; format: cell-based; conditions: same dose (100 uM); data not shown
Method: as §1

[6] = 100 uM inhibitor prior to and after transfection, T-47D

## COC(=O)C[C@H](NC(=O)[C@H](C)NC(=O)[C@@H](NC(=O)[C@H](CC(=O)OC)NC(=O)[C@@H](NC(=O)OCc1ccccc1)C(C)C)C(C)C)C(=O)CF [zVDVAD-fmk] (Cbz-VD(OMe)VAD(OMe)-CH2F)
T-47D cells [1]; T-47D, 20 μM in medium, data not shown
  effect of caspase-2 chemical inhibitor on DD1-induced apoptosis: efficiently blocked

## DD1: death domain 1, residues 20-50 of NRIF3 (SEQ ID NO:11), co-resides with transrepression domain RepD1 (PSKITRKKSVITYSPTTGTCQMSLFASPTSS; sequence of DD1)
293
  induction of apoptosis: did not lead to apoptosis; also recorded: no detectable cell death
MB-MDA-435 cells
  induction of apoptosis: efficient apoptosis
MCF-7 cells
  induction of apoptosis: efficient apoptosis
[2]
  induction of apoptosis: efficient apoptosis
GH4C1
  induction of apoptosis: did not lead to apoptosis
HBL100 cells
  induction of apoptosis: efficient apoptosis
COS-1
  induction of apoptosis: did not lead to apoptosis
UOK-145
  induction of apoptosis: did not lead to apoptosis
T-47D cells [3]
  induction of apoptosis (TUNEL and/or Annexin V): efficient apoptosis; also recorded: underwent rapid apoptosis
T-47D cells [3]; listed as RepD1
  induction of apoptosis (TUNEL and/or Annexin V): efficiently induced death
HeLa cells [4]
  induction of apoptosis: did not lead to apoptosis; also recorded: no detectable cell death
AIF-GFP
  sub-cellular location of AIF-GFP upon co-expression: translocation of AIF-GFP from mitochondria to the nucleus
MB-MDA-231 cells
  induction of apoptosis: efficient apoptosis

## Bcl-2: anti-apoptotic Bcl-2 family protein co-expressed from a vector
T-47D cells [1]; co-expressed with GFPNLS-DD1 in T-47D
  effect of co-expression on DD1-mediated apoptosis: significantly inhibited

## COC(=O)C[C@H](NC(=O)[C@H](C)NC(=O)[C@@H](NC(=O)OCc1ccccc1)C(C)C)C(=O)CF [zVAD-fmk] (Cbz-Val-Ala-Asp(OMe)-CH2F)
T-47D cells [1]; [6]
  effect on apoptosis mediated by GFP-NRIF3: did not inhibit apoptosis
  effect on apoptosis mediated by GFPNLS-DD1: did not inhibit apoptosis
T-47D cells [1]; T-47D, no transfected death construct, data not shown
  cell death caused by inhibitor alone: did not cause cell death
HeLa cells [5]
  effect on apoptosis of HeLa cells treated with TNFα and cycloheximide: significantly inhibit apoptosis
